What all share (format): cell-based
The target of experiment [1] is T1, pERK1/2 (Thr202/Tyr204), NCI-1H358 (KRAS G12C) (Homo sapiens, UniProt P01116, G12C).
T1 construct: pERK1/2 HTRF read-out
Briefly: Assay of intracellular pERK1/2 (Thr202/Tyr204) phosphorylation in NCI-H358 cells (KRAS G12C). As to conditions: pERK1/2, 2 days, read-out: NCI-H358 (KRAS G12C) IC50. An outline of the steps: (§1)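 Cells (10000-12000/well) exposed to 3-fold compound dilutions for 2 days at 37 °C, then lysed; pERK1/2 (Thr202/Tyr204) measured by HTRF with d2 and cryptate antibodies, 665/615 nm ratio.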

The target in experiment [2] is T2, pERK1/2 (Thr202/Tyr204), NCI-1H441 (KRAS G12V) (Homo sapiens, UniProt P01116, G12V).
T2 construct: pERK1/2 HTRF read-out
T2 sequence (P01116 1-188 isoform P01116-2 G12V): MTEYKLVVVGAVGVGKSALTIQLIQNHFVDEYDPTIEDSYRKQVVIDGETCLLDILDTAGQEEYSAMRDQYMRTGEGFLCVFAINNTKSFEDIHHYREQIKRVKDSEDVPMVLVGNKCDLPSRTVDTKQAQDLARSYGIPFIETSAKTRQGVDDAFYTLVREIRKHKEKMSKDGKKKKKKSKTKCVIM
Put plainly: Assay of intracellular pERK1/2 (Thr202/Tyr204) phosphorylation in NCI-H441 cells (KRAS G12V). The conditions noted are these: pERK1/2, 2 days, read-out: NCI-H441 (KRAS G12V) IC50. An outline of the steps: as §1

In experiment [3] the target is T3, pERK1/2 (Thr202/Tyr204), PANC-1 (KRAS G121D) (Homo sapiens, UniProt P01116, G12D).
T3 construct: pERK1/2 HTRF read-out
T3 sequence (P01116 1-188 isoform P01116-2 G12D): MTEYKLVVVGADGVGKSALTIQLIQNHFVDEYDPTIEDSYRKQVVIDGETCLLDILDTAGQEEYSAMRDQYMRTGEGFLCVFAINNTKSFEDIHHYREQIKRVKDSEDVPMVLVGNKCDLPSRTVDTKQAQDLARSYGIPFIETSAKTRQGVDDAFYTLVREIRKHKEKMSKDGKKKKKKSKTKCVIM
Briefly: Assay of intracellular pERK1/2 (Thr202/Tyr204) phosphorylation in PANC-1 cells (KRAS G12D). The conditions noted are these: pERK1/2, 2 days, read-out: PANC-1 (KRAS G12D) IC50. An outline of the steps: as §1

The structures appear in SMILES notation. Where only a bound is given, the exact number is not on record here.

Our source for the IC50 values is patent US20260356851A1, “TRICYCLIC COMPOUNDS AND USES THEREOF” (HUTCHMED LIMITED, priority 2023, published 2026).

T1 sequence (P01116 1-188 isoform P01116-2 G12C): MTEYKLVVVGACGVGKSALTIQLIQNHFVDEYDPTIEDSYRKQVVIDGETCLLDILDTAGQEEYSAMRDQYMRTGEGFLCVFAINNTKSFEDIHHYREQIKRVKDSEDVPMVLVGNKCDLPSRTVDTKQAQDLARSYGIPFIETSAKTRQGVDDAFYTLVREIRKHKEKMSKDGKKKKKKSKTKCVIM

Take `CC(c1cccnc1N)N1CCOc2nc(-c3cc(N)c(F)cc3C(F)(F)F)c(F)c3nc(OC[C@@]45CCCN4C[C@H](F)C5)nc1c23` (single isomer, unassigned) [Compound 144, 3-((R or S)-1-(5-(5-amino-4-fluoro-2-(trifluoromethyl)phenyl)-4-fluoro-2-(((2R,7aS)-2-fluorotetrahydro-1H-pyrrolizin-7a(5H)-yl)methoxy)-8,9-dihydro-10H-7-oxa-1,3,6,10-tetraazacyclohepta[de]naphthalen-10-yl)ethyl)pyridin-2-amine]: the IC50 stood at 0.4 nM in experiment [1], 2 nM in experiment [2] and 17 nM in experiment [3].

For `CC(c1cccnc1N)N1CCOc2nc(-c3cc(N)c(F)cc3C(F)(F)F)c(F)c3nc(OC[C@@]45CCCN4C[C@H](F)C5)nc1c23` (single isomer, unassigned) [Compound 145, 3-((R or S)-1-(5-(5-amino-4-fluoro-2-(trifluoromethyl)phenyl)-4-fluoro-2-(((2R,7aS)-2-fluorotetrahydro-1H-pyrrolizin-7a(5H)-yl)methoxy)-8,9-dihydro-10H-7-oxa-1,3,6,10-tetraazacyclohepta[de]naphthalen-10-yl)ethyl)pyridin-2-amine], the IC50 in experiment [1] is 14 nM; in experiment [2], 51 nM; in experiment [3] it was more than 100 nM.

For `[2H]C1([2H])CN(C(C)c2cccnc2N)c2nc(OC[C@@]34CCCN3C[C@H](F)C4)nc3c(F)c(-c4cc(N)cc(C)c4C(F)(F)F)nc(c23)O1` (single isomer, unassigned) [Compound 153, 3-((R or S)-1-(5-(5-amino-3-methyl-2-(trifluoromethyl)phenyl)-4-fluoro-2-(((2R,7aS)-2-fluorotetrahydro-1H-pyrrolizin-7a(5H)-yl)methoxy)-8,9-dihydro-10H-7-oxa-1,3,6,10-tetraazacyclohepta[de]naphthalen-10-yl-8,8-d2)ethyl)pyridin-2-amine], the results for the IC50 in experiment [1], in experiment [2] and in experiment [3] were 0.2 nM, 0.5 nM and 2 nM, respectively.

Take `[2H]C1([2H])CN(C(C)c2cccnc2N)c2nc(OC[C@@]34CCCN3C[C@H](F)C4)nc3c(F)c(-c4cc(N)cc(C)c4C(F)(F)F)nc(c23)O1` (single isomer, unassigned) [Compound 154, 3-((R or S)-1-(5-(5-amino-3-methyl-2-(trifluoromethyl)phenyl)-4-fluoro-2-(((2R,7aS)-2-fluorotetrahydro-1H-pyrrolizin-7a(5H)-yl)methoxy)-8,9-dihydro-10H-7-oxa-1,3,6,10-tetraazacyclohepta[de]naphthalen-10-yl-8,8-d2)ethyl)pyridin-2-amine]: the half-maximal inhibitory concentration (IC50) was 21 nM in experiment [1], 31 nM in experiment [2] and more than 100 nM in experiment [3].

For `Cc1cc(N)cc(-c2nc3c4c(nc(OC[C@@H]5CCCN5C5COC5)nc4c2F)N(C(C)c2cccnc2N)CCO3)c1C(F)(F)F` (single isomer, unassigned) [Compound 160, 3-((R or S)-1-(5-(5-amino-3-methyl-2-(trifluoromethyl)phenyl)-4-fluoro-2-(((S)-1-(oxetan-3-yl)pyrrolidin-2-yl)methoxy)-8,9-dihydro-10H-7-oxa-1,3,6,10-tetraazacyclohepta[de]naphthalen-10-yl)ethyl)pyridin-2-amine], the IC50 is 0.5 nM in experiment [1], 2 nM in experiment [2] and more than 100 nM in experiment [3].

Turning to `Cc1cc(N)cc(-c2nc3c4c(nc(OC[C@@H]5CCCN5C5COC5)nc4c2F)N(C(C)c2cccnc2N)CCO3)c1C(F)(F)F` (single isomer, unassigned) [Compound 161, 3-((R or S)-1-(5-(5-amino-3-methyl-2-(trifluoromethyl)phenyl)-4-fluoro-2-(((S)-1-(oxetan-3-yl)pyrrolidin-2-yl)methoxy)-8,9-dihydro-10H-7-oxa-1,3,6,10-tetraazacyclohepta[de]naphthalen-10-yl)ethyl)pyridin-2-amine], the results for the IC50 in experiment [1], in experiment [2] and in experiment [3] were 14 nM, 48 nM and more than 100 nM, respectively.

In the case of `Cc1cc(N)cc(-c2nc3c4c(nc(OC[C@@]56CCCN5C[C@H](F)C6)nc4c2F)N([C@H](C)c2cccnc2N)CCCO3)c1C(F)(F)F` (single isomer, unassigned) [Compound 166, 3-((R or S)-1-(5-(5-amino-3-methyl-2-(trifluoromethyl)phenyl)-4-fluoro-2-(((2R,7aS)-2-fluorotetrahydro-1H-pyrrolizin-7a(5H)-yl)methoxy)-9,10-dihydro-77-oxa-1,3,6,11-tetraazacycloocta[de]naphthalen-11(8H)-yl)ethyl)pyridin-2-amine], the IC50 in experiment [1] was 69 nM; in experiment [2], more than 100 nM; in experiment [3], more than 100 nM.

`Cc1cc(N)cc(-c2nc3c4c(nc(OC[C@@]56CCCN5C[C@H](F)C6)nc4c2F)N(C(C)c2cccnc2N)CCCO3)c1C(F)(F)F` (single isomer, unassigned) [Compound 167, 3-((R or S)-1-(5-(5-amino-3-methyl-2-(trifluoromethyl)phenyl)-4-fluoro-2-(((2R,7aS)-2-fluorotetrahydro-1H-pyrrolizin-7a(5H)-yl)methoxy)-9,10-dihydro-7-oxa-1,3,6,11-tetraazacycloocta[de]naphthalen-11(8H)-yl)ethyl)pyridin-2-amine]: the 50% inhibitory concentration (IC50) in experiment [1], in experiment [2] and in experiment [3] was more than 100 nM in each case.

Turning to `[2H][C@@]1(F)CN2CCC[C@@]2(COc2nc3c4c(nc(-c5cc(N)c(F)c(C)c5C(F)(F)F)c(F)c4n2)OCCN3C(C)c2cccnc2N)C1` (single isomer, unassigned) [Compound 169, (*)3-(1-(5-(5-amino-4-fluoro-3-methyl-2-(trifluoromethyl)phenyl)-4-fluoro-2-(((2S or 2R,7aS)-2-fluorotetrahydro-1H-pyrrolizin-7a(5H)-yl-2-d)methoxy)-8,9-dihydro-1OH-7-oxa-1,3,6,10-tetraazacyclohepta[de]naphthalen-10-yl)ethyl)pyridin-2-amine], the half-maximal inhibitory concentration (IC50) in experiment [1] came to 0.7 nM; in experiment [2] it was 2 nM; in experiment [3] it was 17 nM.

For `[2H][C@]1(F)CN2CCC[C@@]2(COc2nc3c4c(nc(-c5cc(N)c(F)c(C)c5C(F)(F)F)c(F)c4n2)OCCN3C(C)c2cccnc2N)C1` (single isomer, unassigned) [Compound 170, (*)3-(1-(5-(5-amino-4-fluoro-3-methyl-2-(trifluoromethyl)phenyl)-4-fluoro-2-(((2S or 2R,7aS)-2-fluorotetrahydro-1H-pyrrolizin-7a(5H)-yl-2-d)methoxy)-8,9-dihydro-1OH-7-oxa-1,3,6,10-tetraazacyclohepta[de]naphthalen-10-yl)ethyl)pyridin-2-amine], the half-maximal inhibitory concentration (IC50) in experiment [1] came to 0.2 nM; in experiment [2] it was 0.5 nM; in experiment [3] it was 2 nM.

`[2H]C1([2H])CN(C(C)c2cccnc2N)c2nc(OC[C@@]34CCCN3C[C@H](F)C4)nc3c(F)c(-c4cc(N)c(F)c(C)c4C(F)(F)F)nc(c23)O1` (single isomer, unassigned) [Compound 183, 3-((R or S)-1-(5-(5-amino-4-fluoro-3-methyl-2-(trifluoromethyl)phenyl)-4-fluoro-2-(((2R,7aS)-2-fluorotetrahydro-1H-pyrrolizin-7a(5H)-yl)methoxy)-8,9-dihydro-10H-7-oxa-1,3,6,10-tetraazacyclohepta[de]naphthalen-10-yl-8,8-d2)ethyl)pyridin-2-amine]: the 50% inhibitory concentration (IC50) in experiment [1] was 0.1 nM; in experiment [2], 0.3 nM; in experiment [3], 1 nM.
